Measured values: patent US20150141435A1, “2-PYRIDONE ANTIMICROBIAL COMPOSITIONS” (Emergent BioSolutions, priority 2010, published 2015)
≈ marks a conversion by molar mass, not a printed value. Structures can show the parent of a compound that is named as a salt. Where two headings read alike, the source gives them in different places.

Tested on: bacterial pathogens resistant against quinolones antibiotics
Assay: MIC against quinolone-resistant bacterial pathogens (Table 5)
Assay type: cell-based
[1] = Staphylococcus aureus, read-out: MICs, Staphylococcus aureus levofloxacin-resistant clinical isolate, amino acid changes GrlA, GrlB & GyrA, GP82
[2] = Enterococcus faecalis, read-out: MICs, Enterococcus faecalis vancomycin-resistant (VanB) clinical isolate, GP14
[3] = Enterococcus faecium, read-out: MICs, Enterococcus faecium vancomycin-resistant (VanA) clinical isolate, GP17
[4] = Escherichia coli, GN03, read-out: MICs, Escherichia coli multi-drug resistant clinical isolate, GN03
[5] = Providencia stuartii, GN24, read-out: MICs, Providencia stuartii multi-drug resistant clinical isolate, GN24
[6] = Pseudomonas aeruginosa, GN64, read-out: MICs, Pseudomonas aeruginosa levofloxacin-resistant clinical isolate, GN64
[7] = Staphylococcus aureus, MRSA, read-out: MICs, EMRSA16 Staphylococcus aureus (MRSA) SSCmec type 2, GP33
[8] = Staphylococcus aureus, read-out: MICs, Staphylococcus aureus multi-drug-resistant clinical isolate, GP5
[9] = Streptococcus pneumoniae, read-out: MICs, Streptococcus pneumoniae multi-drug resistant clinical isolate, GP24
[10] = read-out: MICs, Acinetobacter haumannii levofloxacin-resistant clinical isolate, GN54

C[C@H]1COc2c(N3CCN(C)CC3)c(F)cc3c(=O)c(C(=O)O)cn1c23 [Levofloxacin]
MIC (Acinetobacter haumannii levofloxacin-resistant clinical isolate, GN54, read-out: MICs): ≥ 16 µg/mL | MIC (EMRSA16 Staphylococcus aureus (MRSA) SSCmec type 2, GP33, read-out: MICs): ≥ 16 µg/mL | MIC (Enterococcus faecalis vancomycin-resistant (VanB) clinical isolate, GP14, read-out: MICs): ≥ 16 µg/mL | MIC (Enterococcus faecium vancomycin-resistant (VanA) clinical isolate, GP17, read-out: MICs): ≥ 16 µg/mL | MIC (Escherichia coli multi-drug resistant clinical isolate, GN03, read-out: MICs): ≥ 16 µg/mL | MIC (Providencia stuartii multi-drug resistant clinical isolate, GN24, read-out: MICs): ≥ 16 µg/mL | MIC (Pseudomonas aeruginosa levofloxacin-resistant clinical isolate, GN64, read-out: MICs): ≥ 16 µg/mL | MIC (Staphylococcus aureus multi-drug-resistant clinical isolate, GP5, read-out: MICs): ≥ 16 µg/mL | MIC [1]: 8 µg/mL (≈ 22.1 µM) | MIC (Streptococcus pneumoniae multi-drug resistant clinical isolate, GP24, read-out: MICs): 2 µg/mL (≈ 5.53 µM)

Cc1c(-c2ccc(N)nc2)ccn2c(=O)c(C(=O)O)cc(C3CC3)c12 [Example 21 K salt, 8-(6-amino-pyridin-3-yl)-1-cyclopropyl-9-methyl-4-oxo-4H-quinolizine-3-carboxylic acid]
MIC [2]: 1 µg/mL | MIC [3]: 4 µg/mL | MIC [4]: 16 µg/mL | MIC [5]: 2 µg/mL | MIC [6]: 4 µg/mL | MIC [7]: 0.25 µg/mL | MIC [1]: 0.12 µg/mL | MIC [8]: 0.25 µg/mL | MIC [9]: 0.12 µg/mL | MIC [10]: 4 µg/mL

Cc1c(-c2ccc(O)cc2)ccn2c(=O)c(C(=O)O)cc(C3CC3)c12 [Example 46 K salt, 1-cyclopropyl-8-(4-hydroxy-phenyl)-9-methyl-4-oxo-4H-quinolizine-3-carboxylic acid]
MIC [2]: 0.5 µg/mL | MIC [3]: 1 µg/mL | MIC [4]: 8 µg/mL | MIC [5]: 2 µg/mL | MIC [6]: 4 µg/mL | MIC [7]: 0.06 µg/mL | MIC [1]: 0.03 µg/mL | MIC [8]: 0.06 µg/mL | MIC [9]: 0.12 µg/mL | MIC [10]: 2 µg/mL

Cc1c(-c2cc(F)c(N)cc2F)ccn2c(=O)c(C(=O)O)cc(C3CC3)c12 [Example 28 K salt, 8-(4-amino-2,5-difluoro-phenyl)-1-cyclopropyl-9-methyl-4-oxo-4H-quinolizine-3-carboxylic acid]
MIC [2]: 0.25 µg/mL | MIC [3]: 1 µg/mL | MIC [4]: 16 µg/mL | MIC [5]: 1 µg/mL | MIC [6]: 4 µg/mL | MIC [7]: 0.06 µg/mL | MIC [1]: 0.03 µg/mL | MIC [8]: 0.06 µg/mL | MIC [9]: 0.06 µg/mL | MIC [10]: 2 µg/mL

Cc1c(-c2ccc3[nH]ncc3c2)ccn2c(=O)c(C(=O)O)cc(C3CC3)c12 [Example 23 K salt, 1-cyclopropyl-8-(1H-indazol-5-yl)-9-methyl-4-oxo-4H-quinolizine-3-carboxylic acid]
MIC [2]: 0.25 µg/mL | MIC [3]: 0.5 µg/mL | MIC [4]: 4 µg/mL | MIC [5]: 1 µg/mL | MIC [6]: 2 µg/mL | MIC [7]: 0.03 µg/mL | MIC [8]: 0.03 µg/mL | MIC [9]: 0.03 µg/mL | MIC [10]: 1 µg/mL

Cc1c(-c2ccc(N)c(F)c2)ccn2c(=O)c(C(=O)O)cc(C3CC3)c12 [Example 2 K salt, 8-(4-amino-3-fluoro-phenyl)-1-cyclopropyl-9-methyl-4-oxo-4H-quinolizine-3-carboxylic acid]
MIC [2]: 0.5 µg/mL | MIC [3]: 2 µg/mL | MIC [5]: 1 µg/mL | MIC [6]: 2 µg/mL | MIC [7]: 0.12 µg/mL | MIC [1]: 0.06 µg/mL | MIC [8]: 0.06 µg/mL | MIC [9]: 0.12 µg/mL | MIC [10]: 2 µg/mL
